Activity calls are given as the source filed them. The calls are words filed in the database; no cut-off is given here.
Tests used:
[1] = system: Staphylococcus aureus; test: Antibacterial activity against methicillin-resistant Staphylococcus aureus 108 assessed as growth inhibition up to 16 ug/ml after 24 hrs by broth microdilution method; assay type: functional, organism-based
[2] = system: NCI-H460; test: Growth inhibition of human NCI-H460 cells after 72 hrs at 10 uM; assay type: functional, cell-based
[3] = system: Staphylococcus aureus; test: Antibacterial activity against methicillin-susceptible Staphylococcus aureus ATCC 25923 assessed as growth inhibition at 8 ug/ml after 24 hrs by broth microdilution method relative to control; assay type: functional; conditions: ATCC 25923, 24 h, read-out: GI
[4] = system: Staphylococcus aureus; test: Antibacterial activity against methicillin-susceptible Staphylococcus aureus ATCC 25923 assessed as growth inhibition at 64 ug/ml after 24 hrs by broth microdilution method; assay type: functional, organism-based

Structure (SMILES)	growth inhibition (GI) [1]	growth inhibition (GI) [2]	inhibition of growth at 8 µg/mL [3] [%]	growth inhibition (GI) [4]
C/C=C(/C)C(=O)O[C@H]1C[C@]2(C)[C@@H](CC[C@@H](OC(=O)C(F)(F)F)[C@]2(C)O)[C@](C)(CCC2=CC(=O)OC2)[C@@H]1C	inactive	inactive		
C/C=C(/C)C(=O)O[C@H]1C[C@]2(C)[C@@H](CC[C@@H](NC(C)=O)[C@]2(C)O)[C@](C)(CCC2=CC(=O)OC2)[C@@H]1C	inactive	inactive		
C/C=C(/C)C(=O)O[C@H]1C[C@]2(C)[C@@H](CC[C@@H](O)[C@]2(C)O)[C@](C)(CCC2=CC(=O)OC2)[C@@H]1C	inactive	inactive		
C[C@@H]1CC[C@]2(O)[C@H](C[C@H](O)C2(C)C)C(=O)[C@]1(C)CCC1=CC(=O)OC1	inactive	inactive	56	
C/C=C(/C)C(=O)O[C@H]1C[C@]2(C)[C@@H](CC[C@H]3O[C@]32C)[C@](C)(CCC2=CC(=O)OC2)[C@@H]1C	inactive	inactive		inactive
C[C@@H]1C[C@H]2C(=O)C(C)(C)[C@@H](O)CC[C@]2(O)[C@]1(C)CCC1=CC(=O)OC1	inactive	inactive	66	

Source: ChEMBL document CHEMBL3286288, “Diterpenes from the endangered goldenrod Solidago shortii” (2014)
